{"source": "patent US9211288B2", "about": "(priority 2012, dated 2015)", "key": {"[1]": {"test_system": "acetylcholine levels in ventral hippocampus", "settings": "donepezil 1 mg/kg ip and vehicle; compared to vehicle+vehicle", "source_text": "Adult, male, Wistar rats were used for the experiments. The rats were anesthetized before surgery. Each animal was placed in a stereotaxic frame (Kopf Instruments, USA) and an incision was made on the top of the skull. A microdialysis probe with a 4 mm^2 exposed surface (polyacrylnitril membrane, Brainlink, the Netherlands) was implanted into the ventral hippocampus. […] The probes were attached to the skull with stainless steel screws and dental cement. Experiments started after one day of recovery.\nVortioxetine HBr was prepared in 10% 2-hydroxypropyl-β-cyclodextrin at 0, 5 or 10 mg/ml.\nAfter two hours of prestabilisation, samples (30 μl) were collected and stored in 20 mM formic acid and 0.04% ascorbic acid (10 μl).\nThe concentration of acetylcholine in the samples was determined by HLPC fitted with tandem mass spectroscopy (MS/MS) for detection using acetyl-β-methyl-choline as internal standard. Chromatographic separation was performed on a reversed phase Phenomenex Synergi Max-RP column (2.0×150 mm, particle size 4 μm) at 50° C. Components were separated using an isocratic flow of eluent A (20 mM ammonium acetate, 5% acetonitril and 0.3% trifluoroacetic acid) at a flow rate of 0.25 ml/min. […]\nThe average of three pre-administration samples was set to 100%. […] All post-administration samples were expressed as a percentage of basal level within the same subject. […]"}, "[2]": {"test_system": "acetylcholine levels in hippocampus", "experiment": "Microdialysis: acetylcholine levels in ventral hippocampus of freely moving Sprague Dawley rats (Examples 3 and 4)", "format": "in vivo, rat", "source_text": "Adult, male Sprague Dawley rats were used in the experiments. The rats were anesthetized before surgery. The animals were placed in a stereotaxic frame (Kopf instruments, USA), and CMA12 guide cannulas (CMA Microdialysis, Sweden) were implanted aiming into the ventral hippocampus. Coordinates for the tips of the probes were AP=−5.3 mm to bregma, lateral (ML)=−4.8 mm to midline and ventral=−8.0 mm to dura (Paxinos and Watson).\nGalanthamine, the chemical name of which is (4aS,6R,8aS)-4a,5,9,10,11,12-hexahydro-3-methoxy-11-methyl-6H-benzofuro[3a,3,2-ef][2]benzazepin-6-ol, was administered as the HBr salt. Vortioxetine was administered as the HBr salt. Vortioxetine and galantamine were prepared in 0.9% saline. Vortioxetine was administered subcutaneously at 10 mg/kg and galantamine was administered subcutaneously at 0.3 mg/kg and 1.0 mg/kg.\nThe day before the experiment, a microdialysis probe (CMA/12, 4 mm, PAES, MWKO 100 kDa) was inserted into the respective guide cannula in the awake rats. […] At the day of the experiment, samples were collected in 30 min intervals prior to administration to define the baseline. The data is presented as percentage of baseline within the same animal. Significance is defined as p<0.05. Animals received treatments according to experimental protocol and samples were collected at 30 minutes intervals.\nThe concentration of acetylcholine in the samples was determined using a Waters Acquity HPLC system equipped with a Sunshell RP-Aqua 2.1×100 mm, 2.6 um particle column fitted with a Waters Quattro Premier XE triple quadrupole mass spectrometer operating in the MS/MS mode. Components were separated using an isocratic flow of eluent A (100 mM ammonium acetate in milliQ water).\nInjection of galantamine was 60 minutes prior to the injection of vortioxetine."}, "[3]": {"test_system": "rats with scopolamine-induced memory impairment", "experiment": "Novel object recognition task (NOR) in rats with scopolamine-induced memory impairment (Example 5)", "format": "in vivo, rat", "procedure": "In a habituation phase, rats are allowed to explore the test room environment and two objects which differ in shape, colour and texture. In the test phase, one of the objects is exchanged so that the rats are exposed to one novel object and one familiar object. The time spent exploring the novel and the familiar object is recorded following the administration of test compounds.\nSprague-Dawley rats were used\nOne day 1 and day 2 of the experiment the rats received two habituation sessions to the test room environment including two objects (familiar objects). Each session lasted 6 minutes. […] At the test day, five groups of rats received a third habituation test (familiarization trial) after which they were removed from the test apparatus and one of the objects was replaced with a novel object. Four hours later, the rats were put back in the test apparatus (test phase) and the time used exploring of the familiar and the novel object was recorded.\nThe numbers in parenthesis indicate the number of rats in each group"}, "[4]": {"format": "in vivo", "settings": "rat", "excerpt": "In addition, blood samples were taken from each animal to measure the plasma level of the active ingredients."}, "[5]": {"settings": "plasma; cited from earlier work"}, "serotonin transporter [6]": {"target": "T1, serotonin transporter (Rattus norvegicus, UniProt P31652)", "T1 construct": "The receptor occupancy in rats following administration of vortioxetine has been investigated; host or cells: rat, in vivo / ex vivo occupancy", "T1 sequence (P31652 whole entry)": "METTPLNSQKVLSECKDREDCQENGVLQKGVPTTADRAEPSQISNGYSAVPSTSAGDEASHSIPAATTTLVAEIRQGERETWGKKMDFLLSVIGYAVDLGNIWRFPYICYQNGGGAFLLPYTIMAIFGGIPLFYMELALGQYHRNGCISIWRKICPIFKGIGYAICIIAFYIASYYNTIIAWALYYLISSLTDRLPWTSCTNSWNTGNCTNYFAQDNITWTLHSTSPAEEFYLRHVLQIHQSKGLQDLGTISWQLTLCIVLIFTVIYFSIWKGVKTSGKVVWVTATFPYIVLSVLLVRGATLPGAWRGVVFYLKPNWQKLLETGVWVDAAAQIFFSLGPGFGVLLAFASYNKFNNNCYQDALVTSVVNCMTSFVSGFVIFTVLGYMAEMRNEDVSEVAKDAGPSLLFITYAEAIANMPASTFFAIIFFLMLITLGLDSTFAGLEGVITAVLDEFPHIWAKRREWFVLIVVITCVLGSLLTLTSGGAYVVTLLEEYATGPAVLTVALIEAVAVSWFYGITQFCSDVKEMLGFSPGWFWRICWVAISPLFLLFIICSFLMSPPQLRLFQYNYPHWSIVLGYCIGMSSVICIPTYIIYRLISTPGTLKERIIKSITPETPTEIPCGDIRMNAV", "settings": "rats; vortioxetine dosed at 5-10 mg/kg; cited from earlier work"}, "5-HT3-receptor": {"target": "T2, 5-HT3-receptor (Rattus norvegicus, UniProt P35563)", "T2 construct": "The receptor occupancy in rats following administration of vortioxetine has been investigated; host or cells: rat, in vivo / ex vivo occupancy", "T2 sequence (P35563 24-483)": "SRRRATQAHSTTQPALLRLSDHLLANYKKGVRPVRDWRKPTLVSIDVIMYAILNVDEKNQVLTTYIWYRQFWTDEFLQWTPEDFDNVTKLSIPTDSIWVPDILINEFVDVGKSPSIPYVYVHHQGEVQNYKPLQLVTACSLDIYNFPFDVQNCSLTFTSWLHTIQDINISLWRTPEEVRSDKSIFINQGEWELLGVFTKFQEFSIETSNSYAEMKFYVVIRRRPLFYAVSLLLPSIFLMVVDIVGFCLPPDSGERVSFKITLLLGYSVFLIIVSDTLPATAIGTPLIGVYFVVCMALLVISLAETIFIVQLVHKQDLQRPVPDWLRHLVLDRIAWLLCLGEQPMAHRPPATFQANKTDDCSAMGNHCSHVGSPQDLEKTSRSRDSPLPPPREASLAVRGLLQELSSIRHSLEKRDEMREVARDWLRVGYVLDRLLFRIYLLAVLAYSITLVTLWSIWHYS", "settings": "rats; vortioxetine dosed at 5-10 mg/kg; cited from earlier work"}, "5-HT1B-receptor": {"target": "T3, 5-HT1B-receptor (Rattus norvegicus, UniProt P28564)", "T3 construct": "The receptor occupancy in rats following administration of vortioxetine has been investigated; host or cells: rat, in vivo / ex vivo occupancy", "T3 sequence (P28564 whole entry)": "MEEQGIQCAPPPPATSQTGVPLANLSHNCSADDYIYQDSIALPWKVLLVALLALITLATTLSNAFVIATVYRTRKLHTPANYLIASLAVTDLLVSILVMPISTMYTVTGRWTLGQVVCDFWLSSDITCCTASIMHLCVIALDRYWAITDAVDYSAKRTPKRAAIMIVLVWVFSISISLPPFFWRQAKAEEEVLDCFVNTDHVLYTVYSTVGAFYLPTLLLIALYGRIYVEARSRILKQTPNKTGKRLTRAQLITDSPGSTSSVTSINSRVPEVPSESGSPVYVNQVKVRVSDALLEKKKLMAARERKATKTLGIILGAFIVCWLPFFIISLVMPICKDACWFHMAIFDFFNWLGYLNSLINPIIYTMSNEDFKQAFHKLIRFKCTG", "settings": "rats; vortioxetine dosed at 5-10 mg/kg; cited from earlier work"}, "serotonin transporter [7]": {"target": "T4, serotonin transporter (Homo sapiens, UniProt P31645)", "T4 construct": "The serotonin transporter occupancy in humans was investigated; host or cells: human subjects, in vivo", "T4 sequence (P31645 whole entry)": "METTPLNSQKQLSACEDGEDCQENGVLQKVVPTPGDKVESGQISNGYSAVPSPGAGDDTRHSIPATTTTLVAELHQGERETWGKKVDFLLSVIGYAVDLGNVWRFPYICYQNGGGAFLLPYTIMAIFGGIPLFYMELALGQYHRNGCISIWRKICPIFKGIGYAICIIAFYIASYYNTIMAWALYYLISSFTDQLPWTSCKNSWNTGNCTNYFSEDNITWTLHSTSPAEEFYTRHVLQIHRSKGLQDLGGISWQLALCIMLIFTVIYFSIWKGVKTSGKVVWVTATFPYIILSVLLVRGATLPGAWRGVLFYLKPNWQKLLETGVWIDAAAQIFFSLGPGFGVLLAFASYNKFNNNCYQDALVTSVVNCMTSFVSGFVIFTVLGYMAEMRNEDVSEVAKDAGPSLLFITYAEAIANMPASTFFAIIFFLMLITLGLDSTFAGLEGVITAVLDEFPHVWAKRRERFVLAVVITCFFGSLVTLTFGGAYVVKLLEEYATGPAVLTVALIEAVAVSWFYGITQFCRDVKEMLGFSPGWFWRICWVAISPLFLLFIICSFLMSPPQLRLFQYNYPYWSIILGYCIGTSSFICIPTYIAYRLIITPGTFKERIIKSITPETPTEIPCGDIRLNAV", "settings": "humans, cited from earlier work"}, "[8]": {"test_system": "patients suffering from MDD", "settings": "long-term study; cited from earlier work"}, "[9]": {"test_system": "patients with major depressive disorder (MDD)", "settings": "cited from earlier work"}}, "note": "Like-named read-outs stand apart in the source and are kept apart here."}
{"smiles": "COc1cc2c(cc1OC)C(=O)C(CC1CCN(Cc3ccccc3)CC1)C2", "note": "(stereo not drawn) [Donepezil]", "values": [{"measurement": "acetylcholine levels in ventral hippocampus", "setting": "[1]", "result": "significantly increased"}]}
{"smiles": "COc1ccc2c3c1O[C@H]1C[C@@H](O)C=C[C@@]31CCN(C)C2", "note": "[galantamine, (4aS,6R,8aS)-4a,5,9,10,11,12-hexahydro-3-methoxy-11-methyl-6H-benzofuro[3a,3,2-ef][2]benzazepin-6-ol]", "values": [{"measurement": "acetylcholine levels in hippocampus", "setting": "[2]; galantamine 0.3 and 1.0 mg/kg sc and vehicle", "result": "dose dependent, significant increase"}]}
{"smiles": "CN1[C@@H]2C[C@@H](OC(=O)[C@H](CO)c3ccccc3)C[C@H]1[C@@H]1O[C@@H]12", "note": "[scopolamine]", "values": [{"measurement": "effect on short-term memory (recognition index, RI)", "setting": "[3]; scopolamine 0.5 mg/kg ip 40 minutes prior to familiarization trial, versus saline, p<0.001", "result": "impairs short-term memory"}]}
{"smiles": "Cc1ccc(Sc2ccccc2N2CCNCC2)c(C)c1", "note": "[Vortioxetine, 1-[2-(2,4-dimethyl-phenylsulfanyl)-phenyl]-piperazine]", "values": [{"measurement": "Vortioxetine in plasma", "setting": "[4]; vortioxetine 10 mg/kg sc + donepezil 0.3 mg/kg ip", "result": 317, "unit": "ng/mL"}, {"measurement": "Vortioxetine in plasma", "setting": "[4]; vortioxetine 10 mg/kg sc + donepezil 1 mg/kg ip", "result": 317, "unit": "ng/mL"}, {"measurement": "acetylcholine levels in hippocampus", "setting": "[2]; vortioxetine 10 mg/kg sc", "result": "significant increase"}, {"measurement": "reversal of scopolamine-induced memory impairment (recognition index, RI)", "setting": "[3]; scopolamine 0.5 mg/kg + vortioxetine 5 mg/kg ip 20 minutes prior to familiarization trial", "result": "neither vortioxetine at 5 mg/kg nor donepezil at 0.5 mg/kg is able to reverse this impairment"}, {"measurement": "half-life in humans", "setting": "[5]", "result": "approximately 57 hours"}, {"measurement": "occupancy at serotonin transporter", "setting": "serotonin transporter [6]", "result": "almost full occupancy"}, {"measurement": "occupancy at 5-HT3-receptor", "setting": "5-HT3-receptor", "result": "almost full occupancy"}, {"measurement": "occupancy at 5-HT1B-receptor", "setting": "5-HT1B-receptor", "result": "almost full occupancy"}, {"measurement": "serotonin transporter occupancy", "setting": "serotonin transporter [7]; 5 mg/day", "result": 51, "unit": "%"}, {"measurement": "serotonin transporter occupancy", "setting": "serotonin transporter [7]; 10 mg/day", "result": 63, "unit": "%"}, {"measurement": "serotonin transporter occupancy", "setting": "serotonin transporter [7]; 20 mg/day", "result": 90, "unit": "%"}, {"measurement": "prevention of relapse", "setting": "[8]", "result": "effective in preventing relapse"}, {"measurement": "changes in clinical laboratory results, vital signs, weight, or ECG parameters", "setting": "[9]; human, in vivo", "result": "no clinically relevant changes"}, {"measurement": "treatment of depressive and anxious symptoms versus placebo", "setting": "[9]; patients with MDD, six weeks", "result": "separates significantly from placebo"}]}
{"smiles": "CCN(C)C(=O)Oc1cccc([C@H](C)N(C)C)c1", "note": "[rivastigmine, (S)—N-ethyl-N-methyl-3-[1-(dimethylamino)ethyl]-phenyl carbamate]", "values": [{"measurement": "acetylcholine levels in hippocampus", "setting": "[2]; rivastigmine 0.2 and 0.6 mg/kg sc and vehicle", "result": "dose-dependently and significantly increases"}]}
